The subject of the data set is CCRIS mutagenicity, Ames/micronucleus/aberration tests. As to the kind of experiment: CCRIS mutagenicity studies.
[1] abbreviates: Test System: AMES SALMONELLA TYPHIMURIUM, Strain/Indicator: TA100, Metabolic Activation: NONE, Method: STANDARD PLATE.
The mark [2] stands for this setting: Test System: AMES SALMONELLA TYPHIMURIUM, Strain/Indicator: TA1537, Metabolic Activation: NONE, Method: STANDARD PLATE.
Setting [3] is: Test System: AMES SALMONELLA TYPHIMURIUM, Strain/Indicator: TA98, Metabolic Activation: NONE, Method: STANDARD PLATE.
[4] abbreviates: Test System: AMES SALMONELLA TYPHIMURIUM, Strain/Indicator: TA98, Metabolic Activation: RAT, LIVER, S-9, AROCLOR 1254, Method: STANDARD PLATE.
Setting [5] is: Test System: AMES SALMONELLA TYPHIMURIUM, Strain/Indicator: TA100, Metabolic Activation: RAT, LIVER, S-9, AROCLOR 1254, Method: STANDARD PLATE.
[6] abbreviates: Test System: AMES SALMONELLA TYPHIMURIUM, Strain/Indicator: TA1537, Metabolic Activation: RAT, LIVER, S-9, AROCLOR 1254, Method: STANDARD PLATE.

The source made the active and inactive calls. No rule for the calls is given here.

On to `CCCN(CCC)N=O`, for which the mutagenic call (Test System: AMES SALMONELLA TYPHIMURIUM, Strain/Indicator: TA100, Metabolic Activation: HAMSTER, LIVER, S-9, Method: PREINCUBATION) was “active; positive”; the mutagenic call (Test System: AMES SALMONELLA TYPHIMURIUM, Strain/Indicator: TA100, Metabolic Activation: HUMAN, LIVER, S-9, Method: PREINCUBATION) was “inactive; negative”; the mutagenic call (Test System: AMES SALMONELLA TYPHIMURIUM, Strain/Indicator: TA100, Metabolic Activation: MOUSE, INTACT UROTHELIAL CELLS, Method: FLUCTUATION TEST) was “active; positive”; the mutagenic call under setting [1] was “inactive; negative”; the mutagenic call (Test System: AMES SALMONELLA TYPHIMURIUM, Strain/Indicator: TA100, Metabolic Activation: PIG, LIVER, S-9, Method: PREINCUBATION) was “inactive; negative”; the mutagenic call (Test System: AMES SALMONELLA TYPHIMURIUM, Strain/Indicator: TA100, Metabolic Activation: RABBIT, LIVER, S-9, Method: STANDARD PLATE) is “inactive; negative”. The mutagenic call by setting is: (Test System: AMES SALMONELLA TYPHIMURIUM, Strain/Indicator: TA100, Metabolic Activation: RABBIT, LUNG, S-9, Method: STANDARD PLATE) “inactive; negative”; (Test System: AMES SALMONELLA TYPHIMURIUM, Strain/Indicator: TA100, Metabolic Activation: RABBIT, NASAL, S-9, Method: STANDARD PLATE) “inactive; negative”; (Test System: AMES SALMONELLA TYPHIMURIUM, Strain/Indicator: TA100, Metabolic Activation: RAT, INTACT UROTHELIAL CELLS, Method: FLUCTUATION TEST) “active; positive”; (Test System: AMES SALMONELLA TYPHIMURIUM, Strain/Indicator: TA100, Metabolic Activation: RAT, LIVER, S-9, AROCLOR 1254, Method: PREINCUBATION) “active; positive”; (Test System: AMES SALMONELLA TYPHIMURIUM, Strain/Indicator: TA100, Metabolic Activation: RAT, LIVER, S-9, KC500 OR PHENOBARBITAL, Method: LIQUID SUSPENSION) “active; positive”; (Test System: AMES SALMONELLA TYPHIMURIUM, Strain/Indicator: TA100, Metabolic Activation: RAT, LIVER, S-9, Method: PREINCUBATION) “inactive; negative”. Also, the mutagenic call by setting is: (Test System: AMES SALMONELLA TYPHIMURIUM, Strain/Indicator: TA100, Metabolic Activation: RAT, LIVER, S-9, Method: STANDARD PLATE) “inactive; negative”; (Test System: AMES SALMONELLA TYPHIMURIUM, Strain/Indicator: TA100, Metabolic Activation: RAT, LUNG, S-9, Method: STANDARD PLATE) “inactive; negative”; (Test System: AMES SALMONELLA TYPHIMURIUM, Strain/Indicator: TA100, Metabolic Activation: RAT, NASAL, S-9, Method: STANDARD PLATE) “active; positive”; (Test System: AMES SALMONELLA TYPHIMURIUM, Strain/Indicator: TA102, Metabolic Activation: RAT, LIVER, S-9, AROCLOR 1254, Method: PREINCUBATION) “active; positive”; (Test System: AMES SALMONELLA TYPHIMURIUM, Strain/Indicator: TA104, Metabolic Activation: RAT, LIVER, S-9, AROCLOR 1254, Method: PREINCUBATION) “active; positive”; (Test System: AMES SALMONELLA TYPHIMURIUM, Strain/Indicator: TA1530, Metabolic Activation: RAT, LIVER, S-9, Method: STANDARD PLATE) “active; positive”. Also, the mutagenic call (Test System: AMES SALMONELLA TYPHIMURIUM, Strain/Indicator: TA1535, Metabolic Activation: RAT, LIVER, S-9, AROCLOR 1254, Method: PREINCUBATION) is “active; positive”; the mutagenic call (Test System: AMES SALMONELLA TYPHIMURIUM, Strain/Indicator: TA1535ER, Metabolic Activation: NONE, Method: STANDARD PLATE) was “inactive; negative”; the mutagenic call (Test System: AMES SALMONELLA TYPHIMURIUM, Strain/Indicator: TA1975, Metabolic Activation: RAT, LIVER, S-9, AROCLOR 1254, Method: PREINCUBATION) was “active; positive”; the mutagenic call (Test System: AMES SALMONELLA TYPHIMURIUM, Strain/Indicator: YG7104ER, Metabolic Activation: NONE, Method: STANDARD PLATE) was “active; positive”; the mutagenic call (Test System: AMES SALMONELLA TYPHIMURIUM, Strain/Indicator: YG7108ER, Metabolic Activation: NONE, Method: STANDARD PLATE) is “active; positive”; the mutagenic call (Test System: CHINESE HAMSTER V-79, Strain/Indicator: V-79/8-AZAGUANINE, Metabolic Activation: RAT, LIVER, S-15, PHENOBARBITAL, Method: STANDARD PLATE) is “active; positive”. For the same compound, the mutagenic call (Test System: CHINESE HAMSTER V-79, Strain/Indicator: V-79/OUABAIN, Metabolic Activation: HAMSTER, HEPATOCYTES, Method: CELL-MEDIATED) was “active; positive”.
`[N-]=[N+]=Nc1ccc2c(Nc3ccc(NS(=O)(=O)CCCN)cc3)c3cc(N=[N+]=[N-])ccc3nc2c1`: the mutagenic call under setting [2] was “active; positive”.
Turning to `C=C(C)C(=O)OCCO`, the mutagenic call was “inactive; negative” (Test System: AMES SALMONELLA TYPHIMURIUM, Strain/Indicator: TA97A, Metabolic Activation: NONE, Method: STANDARD PLATE); “inactive; negative” under setting [3]; “inactive; negative” under setting [4]; “inactive; negative” (Test System: AMES SALMONELLA TYPHIMURIUM, Strain/Indicator: TA98, Metabolic Activation: RAT, LIVER, S-9, SODIUM PHENOBARBITAL, Method: STANDARD PLATE); “inactive; negative” under setting [1]; “inactive; negative” under setting [5]. Further, the mutagenic call by setting is: (Test System: AMES SALMONELLA TYPHIMURIUM, Strain/Indicator: TA100, Metabolic Activation: RAT, LIVER, S-9, SODIUM PHENOBARBITAL, Method: STANDARD PLATE) “inactive; negative”; (Test System: AMES SALMONELLA TYPHIMURIUM, Strain/Indicator: TA102, Metabolic Activation: NONE, Method: STANDARD PLATE) “inactive; negative”; (Test System: AMES SALMONELLA TYPHIMURIUM, Strain/Indicator: TA104, Metabolic Activation: NONE, Method: STANDARD PLATE) “inactive; negative”; (Test System: AMES SALMONELLA TYPHIMURIUM, Strain/Indicator: TA1535, Metabolic Activation: NONE, Method: STANDARD PLATE) “inactive; negative”; (Test System: AMES SALMONELLA TYPHIMURIUM, Strain/Indicator: TA1535, Metabolic Activation: RAT, LIVER, S-9, AROCLOR 1254, Method: STANDARD PLATE) “inactive; negative”; (Test System: AMES SALMONELLA TYPHIMURIUM, Strain/Indicator: TA1535, Metabolic Activation: RAT, LIVER, S-9, SODIUM PHENOBARBITAL, Method: STANDARD PLATE) “inactive; negative”. Moreover, the mutagenic call runs as follows: under setting [2], “inactive; negative”; under setting [6], “inactive; negative”; (Test System: AMES SALMONELLA TYPHIMURIUM, Strain/Indicator: TA1537, Metabolic Activation: RAT, LIVER, S-9, SODIUM PHENOBARBITAL, Method: STANDARD PLATE) “inactive; negative”; (Test System: AMES SALMONELLA TYPHIMURIUM, Strain/Indicator: TA1538, Metabolic Activation: NONE, Method: STANDARD PLATE) “inactive; negative”; (Test System: AMES SALMONELLA TYPHIMURIUM, Strain/Indicator: TA1538, Metabolic Activation: RAT, LIVER, S-9, AROCLOR 1254, Method: STANDARD PLATE) “inactive; negative”; (Test System: AMES SALMONELLA TYPHIMURIUM, Strain/Indicator: TA1538, Metabolic Activation: RAT, LIVER, S-9, SODIUM PHENOBARBITAL, Method: STANDARD PLATE) “inactive; negative”. Further, under “Test System: CHINESE HAMSTER V-79, Strain/Indicator: V79 (HPRT)/6-THIOGUANINE, Metabolic Activation: NONE”, the mutagenic call is “inactive; negative”.
Turning to `COc1cc2c(c3ccc4ccccc4c13)CCC2=O`, under setting [5], the mutagenic call was “active; positive”.
Consider `C1CCC2OCCOCCOCCOC3CCCCC3OCCOCCOCCOC2C1` (stereo unspecified), for which the mutagenic call under setting [3] is “inactive; negative”; the mutagenic call under setting [4] is “inactive; negative”; the mutagenic call under setting [1] is “inactive; negative”; the mutagenic call under setting [5] is “inactive; negative”; the mutagenic call (Test System: AMES SALMONELLA TYPHIMURIUM, Strain/Indicator: TA1530, Metabolic Activation: NONE, Method: STANDARD PLATE) was “inactive; negative”; the mutagenic call (Test System: AMES SALMONELLA TYPHIMURIUM, Strain/Indicator: TA1530, Metabolic Activation: RAT, LIVER, S-9, AROCLOR 1254, Method: STANDARD PLATE) is “inactive; negative”. Also, the mutagenic call was “inactive; negative” under setting [2] and “inactive; negative” under setting [6].
As to `c1cnc2c(c1)[C@@H]1O[C@H]1C1OC21` (stereo partly specified), the mutagenic call is “inactive; negative” under setting [1] and “inactive; negative” (Test System: AMES SALMONELLA TYPHIMURIUM, Strain/Indicator: TA100, Metabolic Activation: RAT, LIVER, S-9, AROCLOR 1254 (10% OR 20%), Method: STANDARD PLATE).
